In general, Kd refers to the constant that tells how readily two partners part at equilibrium. As usually defined, the IC50 is the concentration needed to halve the response being measured.

Where a name gives a salt, the structure may show the parent alone.

These results are taken from patent publication US6117886A, “Tetrazole derivatives” (Kowa Co., Ltd., priority 1997, dated 2000).

One assay concerns the target T1, LTD4 Receptor (Cavia porcellus, UniProt Q2NNR5).
T1 construct: guinea pig lung protein; from tissue; host or cells: guinea pig lung
T1 sequence (Q2NNR5 1-340): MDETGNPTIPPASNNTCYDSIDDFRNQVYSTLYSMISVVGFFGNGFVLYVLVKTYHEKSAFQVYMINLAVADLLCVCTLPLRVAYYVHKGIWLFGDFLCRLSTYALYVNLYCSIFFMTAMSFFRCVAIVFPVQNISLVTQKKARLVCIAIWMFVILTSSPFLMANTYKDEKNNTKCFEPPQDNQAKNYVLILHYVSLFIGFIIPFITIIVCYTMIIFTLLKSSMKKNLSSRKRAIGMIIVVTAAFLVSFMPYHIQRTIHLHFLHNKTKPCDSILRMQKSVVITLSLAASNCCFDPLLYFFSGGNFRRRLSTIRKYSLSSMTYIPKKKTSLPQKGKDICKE
Put plainly: LTD4 Receptor Binding Inhibitory Test. Further details: species or system guinea pig. On the procedure:
Reaction was stopped by addition of ice-cold Tris-HCl/NaCl (10 mM/100 mM, pH 7.5) buffer, and immediately thereafter, the reaction mixture was filtered by use of a Wattman CF/C filter. The filter was washed twice, each time with 20 ml ice-cold buffer. Radioactivity of the residue was measured by use of a liquid scintillation counter. […] In a saturation test, 2 μM leukotriene D4 was used for the measurement of the amount of non-specific binding.

In a further assay the target is T2, H1 Receptor (Cavia porcellus, UniProt P31389).
T2 construct: guinea pig cerebral membrane protein; from tissue; host or cells: guinea pig cerebral membranes
The experiment in a line: H1 Receptor Binding Inhibitory Test. Further details: species or system guinea pig. On the procedure: Reaction was stopped by addition of ice-cold phosphate buffer, and immediately thereafter, the reaction mixture was filtered by use of a Wattman CF/C filter. The filter was washed twice, each time with 20 ml ice-cold buffer. Radioactivity of the residue was measured by use of a liquid scintillation counter. From the value as obtained when a test compound was not added and values as obtained when the test compound was added at different concentrations, there was determined a dose-response curve representing suppression action of the test compound, from which a 50% inhibitory concentration (IC50) was obtained. Based on the IC50 value and by use of the Cheng-Prusoff equation, a dissociation constant (KD) was calculated (Table 9). In a saturation test, 10^-4 M R(-)-dimetindene was used for the measurement of the amount of non-specific binding.

The target in assay [1] is guinea pig ileum, contraction in response to histamine (Cavia porcellus, UniProt P31389). Put plainly: Antihistaminic action, in vitro test on isolated ileum (contraction in response to histamine). The following applies: 10^-8 to 10^-4 M histamine dose-response curve, 30 min after test compound, 29° C; for Kb: read-out: Anti-histaminic action, pA2 (converted).
The test system of assay [2] is guinea pig ileum, contraction induced with LTD4. Put plainly: Antileukotriene action, in vitro test on isolated ileum (contraction induced with LTD4). The note with it: contraction induced with 10^-8 M LTD4; 29° C; read-out: Anti-LTD4 action IC50.

T2 sequence (P31389 whole entry): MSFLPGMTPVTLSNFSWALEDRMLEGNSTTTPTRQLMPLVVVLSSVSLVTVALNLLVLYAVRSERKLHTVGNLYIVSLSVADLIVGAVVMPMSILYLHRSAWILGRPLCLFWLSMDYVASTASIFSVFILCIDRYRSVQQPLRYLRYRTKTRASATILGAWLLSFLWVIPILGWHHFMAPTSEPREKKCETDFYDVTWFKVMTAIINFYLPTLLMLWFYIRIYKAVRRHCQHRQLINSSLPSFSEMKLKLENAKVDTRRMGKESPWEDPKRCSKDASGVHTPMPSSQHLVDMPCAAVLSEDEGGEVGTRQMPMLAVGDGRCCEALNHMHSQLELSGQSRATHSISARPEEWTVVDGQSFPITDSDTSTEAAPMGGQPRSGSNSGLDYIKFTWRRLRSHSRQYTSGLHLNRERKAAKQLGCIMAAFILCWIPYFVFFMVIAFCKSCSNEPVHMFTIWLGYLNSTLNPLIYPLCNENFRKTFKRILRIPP
Chain of guinea pig ileum, contraction in response to histamine (P31389 whole entry): as above

Take `CC(C)(C)c1ccc2[nH]c(=O)c(-c3nnnn3Cc3cccc(OCc4ccc5ccccc5n4)c3)cc2c1` [Example 18, 6-tert-Butyl-3-{1-[3-(2-quinolylmethoxy)-benzyl]tetrazolyl}quinolin-2-one]: the Kd worked out at 509 nM on LTD4 Receptor and 22.8 µM on H1 Receptor.
As to `CN(C)CCCn1c(=O)c(-c2nnn(Cc3cccc(OCc4ccc5ccccc5n4)c3)n2)cc2cc(O)ccc21` [Example 42, 1-Dimethylaminopropyl-6-hydroxy-3-{2-[3-(2-quinolylmethoxy)benzyl]tetrazolyl}quinolin-2-one], the Kb in assay [1] was 55 nM.
Consider `COc1ccc2[nH]c(=O)c(-c3nnn(Cc4cccc(OCc5ccc6ccccc6n5)c4)n3)cc2c1` [Example 1, 6-methoxy-3-{2-[3-(2-quinolylmethoxy)benzyl]tetrazolyl}quinolin-2-one], for which the IC50 in assay [2] is 90 nM. The Kd at LTD4 Receptor came out at 114 nM; at H1 Receptor, 2.96 µM. Further, the “Anti-histaminic action, pD'2” value in assay [1] was 5.53.
Take `COc1ccc2[nH]c(=O)c(-c3nnnn3Cc3ccc(OCc4ccc5ccccc5n4)cc3)cc2c1` [Example 25, 6-Methoxy-3-{1-[4-(2-quinolylmethoxy)benzyl]-tetrazolyl}quinolin-2-one]: the Kd amounted to 5.86 nM on LTD4 Receptor and 13.9 µM on H1 Receptor.
Turning to `NCC(=O)Oc1ccc2[nH]c(=O)c(-c3nnn(Cc4cccc(OCc5ccc6ccccc6n5)c4)n3)cc2c1` [Example 64, 6-Glycyloxy-3-{2-[3-(2-quinolylmethoxy)-benzyl]tetrazolyl}quinolin-2-one], the Kd on LTD4 Receptor was 22.1 nM; at H1 Receptor it was 61.9 µM.
`COc1ccc2c(c1)cc(-c1nnn(Cc3cccc(OCc4ccc5ccccc5n4)c3)n1)c(=O)n2C` [Example 38, 6-methoxy-1-methyl-3-{2-[3-(2-quinolylmethoxy)benzyl]tetrazolyl}quinolin-2-one]: in assay [2], the IC50 was found to be 160 nM. For the same molecule, the “Anti-histaminic action, pD'2” value in assay [1] is on record as 5.52.
`COc1ccc2c(c1)cc(-c1nnn(Cc3cccc(OCc4ccc5ccccc5n4)c3)n1)c(=O)n2CCCCN1CCN(Cc2ccc3ccccc3n2)CC1` [Example 47, 6-Methoxy-1-{4-[4-(2-quinolylmethyl)-piperazinyl]butyl}-3-{2-[3-(2-quinolylmethoxy)benzyl]tetrazolyl}quinolin-2-one dimalate]: the Kb in assay [1] was 20 nM.
Turning to `O=c1[nH]c2ccc(O)cc2cc1-c1nnnn1Cc1cccc(OCc2ccc3ccccc3n2)c1` [Example 29, 6-Hydroxy-3-{1-[3-(2-quinolylmethoxy)benzyl]-tetrazolyl}quinolin-2-one], the results for the Kd on LTD4 Receptor and on H1 Receptor were 13.6 nM and 57.2 µM, respectively.
Consider `COc1ccc2c(c1)cc(-c1nnn(Cc3cccc(OCc4ccc5ccccc5n4)c3)n1)c(=O)n2CCN(C)C` [Example 41, 1-Dimethylaminoethyl-6-methoxy-3-{2-[3-(2-quinolylmethoxy)benzyl]tetrazolyl}quinolin-2-one], for which the “Anti-histaminic action, pD'2” value in assay [1] turned out to be 5.58.
Regarding `COc1ccc2[nH]c(=O)c(-c3nnnn3Cc3cccc(OCc4ccc5ccccc5n4)c3)cc2c1` [Example 2, 6-methoxy-3-{1-[3-(2-quinolylmethoxy)benzyl]tetrazolyl}quinolin-2-one], in assay [2], the IC50 stood at 250 nM. Also, the Kb in assay [1] was 4170 nM.
For `CN(C)CCn1c(=O)c(-c2nnn(Cc3cccc(OCc4ccc5ccccc5n4)c3)n2)cc2cc(O)ccc21` [Example 39, 1-Dimethylaminoethyl-6-hydroxy-3-{2-[3-(2-quinolylmethoxy)benzyl]tetrazolyl}quinolin-2-one], the Kb in assay [1] is 30.2 nM.
`Cn1c(COc2cccc(Cn3nnc(-c4cc5ccccc5[nH]c4=O)n3)c2)nc2ccccc21` [Example 8, 3-{2-[3-(N-Methylbenzimidazol-2-ylmethoxy)benzyl]tetrazolyl}quinolin-2-one]: the results for the Kd at LTD4 Receptor and on H1 Receptor were 143 nM and 9.38 µM, respectively.
Consider `CN1CCN(CCCOc2ccc3c(c2)cc(-c2nnn(Cc4cccc(OCc5ccc6ccccc6n5)c4)n2)c(=O)n3C)CC1` [Example 52, 1-methyl-6-[3-(4-metylpiperazinyl)propyl]oxy-3-{2-[3-(2-quinolylmethoxy)benzyl]tetrazolyl}quinolin-2-one trihydrochloride], for which, in assay [2], the IC50 worked out at 1300 nM. Also, the Kb in assay [1] was 912 nM.
Take `COc1ccc2c(c1)cc(-c1nnn(Cc3cccc(OCc4ccc5ccccc5n4)c3)n1)c(=O)n2CCCN1CCN(Cc2ccccn2)CC1` [Example 48, 6-Methoxy-1-{3-[4-(2-pyridylmethyl)-piperazinyl]propyl}-3-{2-[3-(2-quinolylmethoxy)benzyl]tetrazolyl}quinolin-2-one dihydrochloride]: the Kb in assay [1] was 115 nM.
Consider `O=c1[nH]c2ccc(O)cc2cc1-c1nnn(Cc2ccc(OCc3ccc4ccccc4n3)cc2)n1` [Example 22, 6-Hydroxy-3-{2-[4-(2-quinolylmethoxy)benzyl]-tetrazolyl}quinolin-2-one], for which the Kd is 364 nM on LTD4 Receptor and 30.1 µM on H1 Receptor.
For `CC(=O)Oc1ccc2[nH]c(=O)c(-c3nnn(Cc4ccc(OCc5ccc6ccccc6n5)cc4)n3)cc2c1` [Example 56, 6-Acetoxy-3-{2-[4-(2-quinolylmethoxy)benzyl]-tetrazolyl}quinolin-2-one], the Kd at LTD4 Receptor is 336 nM; on H1 Receptor it was 84.7 µM.
For `CC(=O)Oc1ccc2[nH]c(=O)c(-c3nnn(Cc4cccc(OCc5ccc6ccccc6n5)c4)n3)cc2c1` [Example 58, 6-Acetoxy-3-{2-[3-(2-quinolylmethoxy)benzyl]-tetrazolyl}quinolin-2-one] the same measures were 38.2 nM and 480 µM.
As for `CCOCCn1c(COc2ccc(Cn3nnc(-c4cc5cc(OC)ccc5[nH]c4=O)n3)cc2)nc2ccccc21` [Example 6, 3-{2-{4-[N-(2-Ethoxyethyl)benzimidazol-2-ylmethoxy]benzyl}tetrazolyl}-6-methoxyquinolin-2-one], in assay [2], the IC50 amounted to 1100 nM. Moreover, the Kd on LTD4 Receptor turned out to be 8110 nM; on H1 Receptor, 3.29 µM. In assay [1], the Kb is 40.7 nM.
As for `CN(C)CCn1c(=O)c(-c2nnnn2Cc2cccc(OCc3ccc4ccccc4n3)c2)cc2cc(O)ccc21` [Example 40, 1-Dimethylaminoethyl-6-hydroxy-3-{1-[3-(2-quinolylmethoxy)benzyl]tetrazolyl}quinolin-2-one], the Kb in assay [1] was 251 nM.
As for `O=c1[nH]c2ccccc2cc1-c1nnn(Cc2cccc(OCc3ccc4ccccc4n3)c2)n1` [Example 26, 3-{2-[3-(2-Quinolylmethoxy)benzyl]-tetrazolyl}quinolin-2-one], the IC50 in assay [2] amounted to 179 nM. The Kd was found to be 179 nM on LTD4 Receptor and 89.5 µM on H1 Receptor. For the same molecule, in assay [1], the “Anti-histaminic action, pD'2” value is 5.24.
For `O=c1[nH]c2ccc(O)cc2cc1-c1nnn(Cc2cccc(OCc3ccc4ccccc4n3)c2)n1` [Example 28, 6-Hydroxy-3-{2-[3-(2-quinolylmethoxy)benzyl]-tetrazolyl}quinolin-2-one], the Kd stood at 21 nM at LTD4 Receptor and 13.9 µM on H1 Receptor.
For the molecule `COc1ccc2c(c1)cc(-c1nnn(Cc3cccc(OCc4ccc5ccccc5n4)c3)n1)c(=O)n2CCCN1CCN(Cc2ccc3ccccc3n2)CC1` [Example 45, 1-{3-[4-(2-quinolylmethyl)-1-piperazinyl]propyl}-6-methoxy-3-(2-[3-(2-quinolylmethoxy)benzyl]tetrazolyl)quinolin-2-one dihydrochloride], the IC50 in assay [2] was found to be 640 nM. In assay [1], the Kb is 21.9 nM.
`COc1ccc2[nH]c(=O)c(-c3nnn(Cc4ccc(OCc5ccc6ccccc6n5)cc4)n3)cc2c1` [Example 24, 6-Methoxy-3-{2-[4-(2-quinolylmethoxy)benzyl]-tetrazolyl}quinolin-2-one]: the Kd at LTD4 Receptor came out at 205 nM; on H1 Receptor, 9.51 µM.
As for `Cn1c(COc2cccc(Cn3nnnc3-c3cc4ccccc4[nH]c3=O)c2)nc2ccccc21` [Example 9, 3-{1-[3-(N-Methylbenzimidazol-2-ylmethoxy)benzyl]tetrazolyl}quinolin-2-one], the Kd at LTD4 Receptor turned out to be 320 nM; at H1 Receptor, 13.7 µM.
`CN(C)CCn1c(=O)c(-c2nnn(Cc3cccc(C=Cc4ccc5ccccc5n4)c3)n2)cc2cc(O)ccc21` [Example 43, 1-Dimethylaminoethyl-6-hydroxy-3-{2-[3-(2-quinolylethenyl)benzyl]tetrazolyl}quinolin-2-one]: in assay [1], the Kb is 174 nM.
